Measured values as given in US4570005A, “Process for the preparation of 2-arylpropyl ether or thioether derivatives” (priority 1980, dated 1986).
Where two headings read alike, the source gives them in different places.

Tests used:
Test 8: Fish Toxicity = assay type: in vivo; conditions: carp, water; concentration at which 1/2 of the test fishes were killed within 48 hours; read-out: Fish Toxicity, TLm48
Description: A water tank having a width of 60 cm, a length of 30 cm and a height of 40 cm was filled with water, and 10 yearling carps having a body length of about 5 cm were set free in the tank and adapted to the environment in the tank. A test compound was applied so that the concentration in water was 10, 1 or 0.1 ppm. After 48 hours, the numbers of killed and living carps were counted and the influences on the fishes were examined.

[1] = Test 9: Toxicity Test (acute oral toxicity, mice); conditions: mouse, in vivo, po
Description: A predetermined amount of a solution or suspension of a test compound in corn oil was orally administered to male mice having a body weight of 19 to 23 g (0.2 ml per 10 g of the body weight). After 7 days, the number of killed mice was counted and the influences on the mice were examined.

[2] = system: resistant green rice leafhopper (collected at Nakagawara); assay: Test 3: Effect on Resistant Green Rice Leafhopper (collected at Nakagawara); assay type: in vivo, Nephotettix cincticeps Uhler (Green rice leafhopper); conditions: Nephotettix cincticeps, read-out: Mortality (%), Green Rice Leafhopper Collected at Nakagawara
How it was run: (§1)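 Ten adult females per pot, either resistant (Nakagawara) or sensitive (Chigasaki), were caged on air-dried rice seedlings (2–3 leaves) sprayed at 3 ml/pot with 100 or 20 ppm of an emulsifiable concentrate dilution. Dead and living insects were counted after 24 hours; mortality is the mean of three pots.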

[3] = system: sensitive green rice leafhopper (collected at Chigasaki); assay: whole plant or invertebrate; assay type: in vivo; conditions: Nephotettix cincticeps, read-out: Mortality (%), Green Rice Leafhopper Collected at Chigasaki
How it was run: as §1

two-spotted spider mite = assay: Test 6: Effect on Two-Spotted Spider mite Adults; assay type: in vivo; conditions: Tetranychus urticae
Description: (§2) To a mixture of 20 parts of the compound of the present invention and 20 parts of Sorpol SM-200 (registered tradename for the product supplied by Toho Chemical Industrial Co., Ltd.) was added 60 parts of xylol, and the mixture was suffciently blended. The obtained emulsifiable concentrate was diluted at a predetermined concentration with distilled water, and the obtained dilution was used.
A kidney bean leaf disc perforated with a cork borer (15 mm in diameter) was placed on water-impregnated absorbent cotton (2 cm×2 cm), and 10 adults of two-spotted spider mite were set free. A chemical dilution having a concentration of 100 ppm was applied with an applicator in an amount of 3 ml.
The leaf disc-placed absorbent cotton was placed in a thermostat chamber maintained at 25° C. After 24 hours, the number of killed adults was counted and the mortality was calculated. The test was made on three leaf discs and the average value was calculated.

diamond back moth = assay: Test 4: Effect on Diamond Back Moth; assay type: in vivo; conditions: Plutella, third-instar larvae, 24 hours, read-out: Mortality (%)
How it was run: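 Compound formulated as an emulsifiable concentrate, diluted in water to 100 or 20 ppm and sprayed at 3 ml per cup onto cabbage leaves holding 10 third-instar larvae. Mortality counted after 24 hours; mean of three cups.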

tobacco cutworm [4] = assay: Test 1: Effect on Tobacco Cutworm (leaf immersion), mortality after 24 hours; assay type: in vivo; conditions: second-instar larvae, 25° C
How it was run: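 Second-instar tobacco cutworm larvae were kept at 25 °C on air-dried sweet-potato leaves that had been immersed for 10 s in test dilutions of 100 or 20 ppm from an emulsifiable concentrate. Mortality was scored at 24 h as the mean of three cups.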

German cockroach = assay: Test 7: Effect on German Cockroach; assay type: in vivo; conditions: Blattella germanica
How it was run: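 Petri dish floors were treated with 50 or 10 mg/m2 of compound (diluted emulsifiable concentrate) and air-dried. Ten male adult German cockroaches per dish were held at 25° C. Agonized and dead insects were counted after 24 hours, averaging two dishes.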

green peach aphid = assay: Test 5: Effect on Green Peach Aphid; assay type: in vivo; conditions: Myzus persicae; 100 ppm; mortality class; 24 hours; read-out: Insecticidal Activity
Description: as §2
Seedlings (having 3 to 4 leaves) of an eggplant grown on a pot were inoculated with green peach aphids and the insects were allowed to grow. The number of the insects was counted. A chemical dilution having a concentration of 100 ppm, prepared in the same manner as described in Test 1, was applied with a spray gun at a rate of 10 ml per pot. Then, the pot was placed in a glass green house. After 24 hours, the number of living insects was counted and the mortality was calculated.
The test was made on three pots, and the average value was calculated. In Table 6, mark "A" indicates a mortality higher than 95%, mark "B" indicates a mortality of 80 to 95%, mark "C" indicates a mortality of 50 to 80%, and mark "D" indicates a mortality lower than 50%.

tobacco cutworm [5] = assay: Test 2: Tobacco Cutworm Larva Dipping Test, mortality after 24 hours; assay type: in vivo; conditions: 24 hours
How it was run: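 Second- and fifth-instar larvae dipped 5 s in a water dilution of an emulsifiable concentrate at 100 or 20 ppm, blotted, then held on artificial diet at 25° C. Dead and living larvae counted after 24 hours; mortality averaged over three cups.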

[6] = 20 ppm, sensitive female adults, 24 hours
[7] = 100 ppm, sensitive female adults, 24 hours
[8] = 100 ppm, adults, 24 hours, 25° C, read-out: Mortality (%)
[9] = 10 mg/m^2, male adults, agonized and killed after 24 hours, read-out: Mortality (%)
[10] = 50 mg/m^2, male adults, agonized and killed after 24 hours, read-out: Mortality (%)
[11] = fifth-instar larvae, read-out: Motality (%), Fifth-Instar Larvae
[12] = second-instar larvae, read-out: Motality (%), Second-Instar Larvae

| SMILES | LC50 at 48 h (Test 8: Fish Toxicity) [µg/mL] | LD50 at 168 h [1] [mg/kg] | mortality at 20 ppm ([2]; 24 h) [%] | mortality at 100 ppm ([2]; 24 h) [%] | mortality at 20 ppm [3, 6] [%] | mortality at 100 ppm [3, 7] [%] | mortality at 100 ppm (two-spotted spider mite; [8]) [%] | mortality at 20 ppm (diamond back moth) [%] | mortality at 100 ppm (diamond back moth) [%] | mortality at 20 ppm (tobacco cutworm [4]) [%] | mortality at 100 ppm (tobacco cutworm [4]) [%] | mortality at 10 mg/m2 (German cockroach; [9]) [%] | mortality at 50 mg/m2 (German cockroach; [10]) [%] | mortality at 100 ppm (green peach aphid) [%] | further results |
| --- | --- | --- | --- | --- | --- | --- | --- | --- | --- | --- | --- | --- | --- | --- | --- |
| CC(C)(COCc1cccc(Cc2ccccc2)c1)c1ccc(Cl)cc1 [Compound 35, 3-Benzylbenzyl 2-(4-chlorophenyl)-2-methylpropyl ether] | > 10 | > 500 | 70 | 100 | 50 | 100 | 85 | – | – | – | – | – | – | – | – |
| Cc1ccc(C(C)(C)COCc2cccc(Oc3ccc(Br)cc3)c2)cc1 [Compound 33, 3-(4-Bromophenoxy)benzyl 2-(4-methylphenyl)-2-methylpropyl ether] | > 10 | > 500 | 100 | 100 | 100 | 100 | 95 | 90 | 100 | 90 | 100 | – | – | – | – |
| CC(C)(COCc1cccc(Oc2ccc(F)cc2)c1)c1ccc(F)cc1 [Compound 45] | > 1 | > 500 | 100 | 100 | 100 | 100 | 100 | 100 | 100 | 100 | 100 | 100 | 100 | – | – |
| Cc1ccc(C(C)(C)COCc2cccc(Oc3ccccc3)c2)cc1 [Compound 47, 3-Phenoxybenzyl 2-(4-methylphenyl)-2-methylpropyl ether] | > 10 | > 500 | 100 | 100 | 100 | 100 | 100 | – | – | 90 | 100 | 90 | 100 | – | – |
| CCOP(=S)(OCC)Oc1ccc(=O)n(-c2ccccc2)n1 [(d), O,O-diethyl-O-(3-oxo-2-phenyl-2H-pyridazin-6-yl)-phosphorothioate, reference compound] | – | – | – | – | – | – | – | – | – | – | – | – | – | – | mortality at 10 mg/m2 (German cockroach; 24 h): 50%; mortality at 50 mg/m2 (German cockroach; 24 h): 100%; mortality at 20 ppm ([2]; 20 ppm, resistant female adults, 24 hours): 10%; mortality at 100 ppm ([2]; 100 ppm, resistant female adults, 24 hours): 20%; mortality at 20 ppm ([3]; 24 h): 40%; mortality at 100 ppm ([3]; 24 h): 90%; mortality at 100 ppm (two-spotted spider mite; 24 h): 40% |
| CC(C)(COCc1cccc(Oc2ccccc2)c1)c1ccccc1 [Compound 5, 3-Phenoxybenzyl 2-phenyl-2-methylpropyl ether] | – | > 500 | 100 | 100 | 100 | 100 | 100 | – | – | – | – | 80 | 100 | > 95 | – |
| CC(C)COc1ccc(C(C)(C)COCc2cccc(Oc3ccccc3)c2)cc1 [Compound 64, 3-Phenoxybenzyl 2-(4-isobutyloxyphenyl)-2-methylpropyl ether] | – | > 500 | – | – | – | – | 100 | 70 | 100 | – | – | – | – | > 95 | – |
| CCC(C)(COCc1cccc(Oc2ccc(Br)cc2)c1)c1ccc(Cl)cc1 (stereo not shown) [Compound 46] | > 10 | > 500 | 80 | 100 | 65 | 100 | 95 | 100 | 100 | 100 | 100 | – | – | – | mortality at 20 ppm (tobacco cutworm [5]; [11]): 60%; mortality at 20 ppm (tobacco cutworm [5]; [12]): 80%; mortality at 100 ppm (tobacco cutworm [5]; [11]): 80%; mortality at 100 ppm (tobacco cutworm [5]; [12]): 90% |
| C#CCOc1ccc(C(C)(C)COCc2cccc(Oc3ccccc3)c2)cc1 [Compound 98, 3-Phenoxybenzyl 2-(4-propargyloxyphenyl)-2-methylpropyl ether] | – | > 500 | – | – | – | – | 100 | – | – | 100 | 100 | – | – | – | – |
| CC(C)C(COCc1cccc(Oc2ccccc2)c1)c1ccc(Cl)cc1 (stereo not shown) [Comparative Compound (b), reference compound] | – | – | – | – | – | – | 20 | 10 | 30 | – | – | – | – | < 50 | mortality at 100 ppm (tobacco cutworm [5]; [11]): 0%; mortality at 100 ppm (tobacco cutworm [5]; [12]): 0% |
| CCOCc1ccc(C(C)(C)COCc2cccc(Oc3ccccc3)c2)cc1 [Compound 82, 3-Phenoxybenzyl 2-(4-ethoxymethylphenyl)-2-methylpropyl ether] | – | > 500 | 100 | 100 | 80 | 100 | 90 | – | – | – | – | – | – | – | – |
| CCOc1ccc(C(C)(C)COCc2cccc(Oc3ccccc3)c2)cc1C [Compound 90, 3-Phenoxybenzyl 2-(4-ethoxy-3-methylphenyl)-2-methylpropyl ether] | – | > 500 | 100 | 100 | 100 | 100 | 100 | 100 | 100 | 100 | 100 | 90 | 100 | – | mortality at 20 ppm (tobacco cutworm [5]; [11]): 90%; mortality at 20 ppm (tobacco cutworm [5]; [12]): 100%; mortality at 100 ppm (tobacco cutworm [5]; [11]): 100%; mortality at 100 ppm (tobacco cutworm [5]; [12]): 100% |
| CCCOc1ccc(C(C)(C)COCc2cccc(Oc3ccccc3)c2)cc1 [Compound 57, 3-Phenoxybenzyl 2-[4-(n-propoxy)phenyl]-2-methylpropyl ether] | – | > 500 | 100 | 100 | 100 | 100 | 90 | 75 | 100 | 100 | 100 | – | – | > 95 | – |
